Where two headings read alike, the source gives them in different places.

We go through 6 compounds from US9945845B2, “Methods of screening using amphibians” (priority 2009, dated 2018).

Data set [1] relates to LEC. As to the kind of experiment: LEC cell proliferation assay. Format: cell-based, human. The conditions noted are these: 10 μM in 0.1% DMSO, 48 hours; for activity at 10 µM: Homo sapiens, 48 h, read-out: LEC proliferation. The procedure: (§1) Human umbilical vein endothelial cells (HUVEC) were purchased from PromoCell. […] HUVEC and LEC were cultured in endothelial basal medium EBM (Cambrex) supplemented with 20% fetal bovine serum (Invitrogen), antibiotic-antimycotics (100 U/ml penicillin, 100 μg/ml streptomycin, 250 ng/ml amphotericin; Invitrogen). 2 mM L-glutamine (Invitrogen), 10 μg/ml hydrocortisone (Fluka) and 25 μg/ml N^6,2′-O-dibutyryladenosine 3′,5′-cyclic monophosphate sodium salt (Fluka) for up to eleven passages.
(§2) The intensity of fluorescence, which is proportional to the number of viable cells, was measured using a microplate reader (SpectraMax Gemini EM; Molecular Devices). The chemical treatments were performed in five replicates.
(§3) The cell proliferation assays were performed by treating the endothelial cell cultures with compounds at a screening dose of 10 μM in 0.1% DMSO for 48 hours (FIG. 6a; Table 10).

The subject of data set [2] is HUVEC. Nature of the data set: HUVEC cell proliferation assay. The data set is classed as cell-based, human. Conditions: 10 μM in 0.1% DMSO, 48 hours; for activity at 10 µM: Homo sapiens, HUVEC, 48 h, read-out: HUVEC proliferation. The procedure:
as §1, §2, §3

Data set [3] has as its system Xenopus embryos. Conditions: for Lethality (NF) / Onset (NF): 1% DMSO; for Lethality: — = no stage of lethality given; for Onset (NF): onset of edema; for Embr. phen.: embryonic phenotype in the primary screen. In short, it runs like this: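 Stage 31 (37 hpf) Xenopus embryos, five per well, exposed to 20 µM compound in 1% DMSO at 23 °C for 4 days. Edema, lethality and other external phenotypes were scored daily by two investigators at stages 39, 41, 45 and 47.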

The test system of data set [4] is LEC. Nature of the data set: cells. Format: cell-based, human. The conditions noted are these: 1 μM in 0.1% DMSO; for activity at 1 µM: Homo sapiens. The procedure: as §1
(§4) The effect of the selected chemicals on the formation of tube-like structures was performed as follows. […] After overnight incubation at 37° C. the treated cell cultures were fixed with 4% paraformaldehyde. Each chemical treatment was performed in triplicate and the experiment was repeated at least three times. Three representative images of hotspots with tube-like structures were taken per well using a digital camera (AxioCam MRm, Carl Zeiss) mounted on an inverted microscope (Axiovert 200M, Carl Zeiss). The length of the tube-like structures was measured using the IPLab software (BD Biosciences). For each experimental condition, results are represented as average total tube length (μm) per area (three image fields).
(§5) The effects of the selected compounds on endothelial tube formation was assessed after over treatment of LEC and HUVEC cultures at a compound concentration of 1 μM in 0.1% DMSO. The length of the tube-like structures was measured using the IPLab software.

Data set [5] relates to HUVEC. As to the kind of experiment: HUVEC tube formation assay. Format: cell-based, human. Conditions: 1 μM in 0.1% DMSO; for activity at 1 µM: Homo sapiens, HUVEC. How it is done: as §1, §4, §5
Data set [6] deals with blood vessel development and/or lymphangiogenesis in Xenopus embryos. The data set is classed as in vivo, Xenopus laevis. Conditions: for blood vessel development phenotype (apj expression, in words): 20 μM from stage 31, fixed at stage 35/36; for lymph vessel development phenotype (vegfr3 expression, in words): 20 μM from stage 31, fixed at stage 42; for ALH phenotype: anterior lymph heart; for ALH phenotype / ALS phenotype / ISV phenotype / PCV phenotype / PLV phenotype / VVN phenotype: Xenopus embryos; for ALS phenotype: anterior lymph sac; for ISV phenotype: intersomitic vessels; for PCV phenotype: posterior cardinal vein; for PLV phenotype: posterior lymph vessels; for VVN phenotype: vitelline vein network. How it is done:
All chemicals were purchased from Sigma and 10-mM stock solutions in DMSO were prepared. Chemicals were used at a final concentration of 20 μM in screening medium to treat homozygous albino Xenopus embryos, which lack natural pigmentation. Chemical treatments of embryos (n=7 per well) was initiated at stage 31 (37 hpf) and terminated at stages 35/36 (50 hpf) or 42 (80 hpf). Embryos were fixed in 4% paraformaldehyde and processed for whole mount in situ hybridization.
Where albino embryos were used, the bleaching step was omitted. Semi-automated whole mount in situ hybridizations were performed using the Biolane HTI machine (Hölle & Hüttner AG, Germany). […] Images were captured using a stereomicroscope (SteREO Lumar V12; Carl Zeiss) equipped with a digital camera (AxioCam Color; Carl Zeiss). Composite figures were organized and labeled using Adobe Photoshop CS2 and Adobe Illustrator CS software.
Edema formation or late-stage lethality may result from excretory system defects, (cardio)vascular and/or lymphatic vascular pathologies. […] Embryos were fixed for in situ hybridization either at stage 35/36 to analyze vasculogenesis and intersomitic vein angiogenesis defects or at stage 42 to evaluate possible defects in lymph vessel development (FIGS. 3-5).

The mark [7] stands for this setting: compounds causing edema, 20 μM, treatment from stage 31, scored to stage 47.
[8] abbreviates: 20 μM, treatment from stage 31, Nieuwkoop & Faber stage.
Setting [9] is: overnight, read-out: LEC tube formation.
[10] abbreviates: read-out: LEC tube formation (tube length).
[11] abbreviates: overnight, read-out: HUVEC tube formation.
[12] abbreviates: read-out: HUVEC tube formation (tube length).

With `CCn1c(=O)c2[nH]c(-c3ccccc3)nc2n(CC)c1=O` [1,3-Diethyl-8-phenylxanthine], in data set [1], the activity at 10 µM fell in the range of 85 to 115%. In data set [2], the activity at 10 µM fell in the range of 85 to 115%. Besides, in data set [3] (setting [7]), the “Lethality (NF)” value is on record as 45 NF. Moreover, in data set [3] (embryonic stage), the “Type of edema Pericordial” value is 41/42; the Lethality is 45 embryonic stages according to Nieuwkoop and Faber (NF). The “Type of edema Ventral” value in data set [3] (embryonic stage, ‡ = edemas also detected in the gut) is given as 41/42. In data set [3] (setting [8]), the “Onset (NF)” value is 41/42. Moreover, the activity at 1 µM in data set [4] (setting [9]) fell in the range of 85 to 115%. The activity at 1 µM in data set [4] (setting [10]) was determined as 90%. Moreover, in data set [5] (setting [11]), the activity at 1 µM lay in the range of 115 to 150%. Also, the activity at 1 µM in data set [5] (setting [12]) amounted to 123%. In data set [6], the “blood vessel development phenotype (apj expression, in words)” value (“blood vessel development phenotype” below) is reported as “hyperplasia of the VVN, while ISV angiogenesis occurred unaffected”; the “lymph vessel development phenotype (vegfr3 expression, in words)” value is “lymphangiogenesis was largely suppressed”; the ALH phenotype result is given as “stunted”; the ALS phenotype entry was “stunted”. For the same compound, in data set [6], the ISV phenotype result was “normal”, the PCV phenotype entry is on record as “normal”, the PLV phenotype entry is on record as “hypoplastic” and the VVN phenotype result is listed as “hyperplastic”.
On to `COc1cc2c(cc1O)CC[C@@H]1[C@@H]2CC[C@]2(C)[C@@H](O)CC[C@@H]12` [2-methoxyestradiol, 2-Hydroxyestradiol 2-methyl ether], for which, in data set [1], the LEC proliferation result is “− (−, moderate inhibition (50-85% of control):)” and the “effect on LEC proliferation (in words)” value is listed as “inhibited preferentially LEC proliferation”. The HUVEC proliferation entry in data set [2] was “O (O, inactive or marginal effects (85-115% of control);)”. The “scored in the phenotypic Xenopus screens” value in data set [3] (20 μM, known antiangiogenic compounds) is reported as “active”. Besides, in data set [3] (setting [7]), the “Lethality (NF)” value is reported as 33/34. Moreover, the Embr. phen. entry in data set [3] is recorded as “EDE”. Further, in data set [3] (embryonic stage), the “Type of edema Pericordial” value is reported as 33/34 and the Lethality was 33/34. The “Onset (NF)” value in data set [3] (setting [8]) was 33/34. For the same compound, in data set [4], the “LEC tube formation (tube length)” value is 80 % of control. In addition, in data set [4] (overnight), the LEC tube formation entry is on record as “− (−, moderate inhibition (50-85% of control):)”. In addition, in data set [5], the “HUVEC tube formation (tube length)” value was 40 % of control and the “effect on HUVEC tube formation (in words)” value is “blocked tube formation preferentially in HUVEC cultures”. Further, in data set [5] (overnight), the HUVEC tube formation entry was “− − (− −, strong inhibition (<50% of control);)”. Moreover, in data set [6], the ISV phenotype entry is “impaired”, the PCV phenotype entry is listed as “hypoplastic” and the VVN phenotype entry is recorded as “hypoplastic”.
As for `Nc1ccc2c3c(cccc13)C(=O)NC2=O` [4-Amino-1,8-naphthalimide], in data set [1], the LEC proliferation entry was “O (O, inactive or marginal effects (85-115% of control);)”. For the same compound, the HUVEC proliferation result in data set [2] is listed as “+ (+, moderate promotion (>115-150% of control).)”. Besides, the Embr. phen. result in data set [3] is “EDE”. Besides, in data set [3] (embryonic stage), the “Type of edema Pericordial” value is given as 41/42; the “Type of edema Proctodeal” value was 47 embryonic stages according to Nieuwkoop and Faber (NF). For the same compound, in data set [3] (embryonic stage, * = causing bulging eyes, # = bilateral, causing narrow-set eyes), the “Type of edema Periocular” value was 41/42*. Further, in data set [3] (setting [8]), the “Onset (NF)” value is recorded as 41/42. In addition, in data set [4], the “effect on LEC tube formation (in words)” value is listed as “preferentially blocked tube formation in LEC rather than HUVEC cultures”. For the same compound, the LEC tube formation result in data set [4] (overnight) is listed as “− (−, moderate inhibition (50-85% of control):)”. In addition, the HUVEC tube formation result in data set [5] (overnight) was “O (O, inactive or marginal effects (85-115% of control);)”. Moreover, in data set [6], the “blood vessel development phenotype” value is on record as “hyperplasia of the VVN, while ISV angiogenesis occurred unaffected”; the “lymph vessel development phenotype (vegfr3 expression, in words)” value is “lymphangiogenesis was largely suppressed”; the ALH phenotype result is “stunted”; the ALS phenotype result is recorded as “impaired”. Besides, in data set [6], the ISV phenotype entry is reported as “normal”, the PCV phenotype result is “normal”, the PLV phenotype result is listed as “hypoplastic” and the VVN phenotype entry is listed as “hyperplastic”.
Consider `Cl.c1ccc(CN2CCC3(CCCc4ccccc43)CC2)cc1` [L-687, 384 hydrochloride], for which the LEC proliferation result in data set [1] is “O (O, inactive or marginal effects (85-115% of control);)”. For the same compound, in data set [2], the HUVEC proliferation result was “+ (+, moderate promotion (>115-150% of control).)”. Besides, in data set [4] (overnight), the LEC tube formation entry is “− (−, moderate inhibition (50-85% of control):)”. The HUVEC tube formation entry in data set [5] (overnight) is listed as “− (−, moderate inhibition (50-85% of control):)”. Moreover, the “blood vessel development phenotype” value in data set [6] is given as “did not affect vascular development”.
As to `CC1=C(/C=C/C(C)=C/C=C/C(C)=C/C(=O)O)C(C)(C)CCC1` [Retinoic acid], in data set [1], the LEC proliferation result was “+ (+, moderate promotion (>115-150% of control).)” and the activity at 10 µM is 115 to 150%. Also, in data set [2], the HUVEC proliferation entry is reported as “+ (+, moderate promotion (>115-150% of control).)” and the activity at 10 µM is 115 to 150%. Moreover, the “Lethality (NF)” value in data set [3] (setting [7]) amounted to 40 NF. For the same compound, in data set [3] (embryonic stage), the “Type of edema Proctodeal” value is 40 embryonic stages according to Nieuwkoop and Faber (NF); the “Type of edema Pronephric” value is 39 embryonic stages according to Nieuwkoop and Faber (NF); the Lethality is 39 embryonic stages according to Nieuwkoop and Faber (NF). Besides, in data set [3] (embryonic stage, + = cerebral edema extending dorso-anteriorly and displacing the eyes), the “Type of edema Cerebral” value is 39+ embryonic stages according to Nieuwkoop and Faber (NF). In addition, the activity at 1 µM in data set [4] (setting [9]) is 50 to 85%. The activity at 1 µM in data set [4] (setting [10]) fell in the range of 50 to 85%. Besides, the activity at 1 µM in data set [5] (setting [11]) fell in the range of 50 to 85%. Further, the activity at 1 µM in data set [5] (setting [12]) was 50 to 85%.
Regarding `Oc1c2ccccc2c2c3c(cccc13)N=N2` [SP600125, 1,9-Pyrazoloanthrone], the activity at 10 µM in data set [1] and in data set [2] was 85 to 115% throughout. Besides, the “Lethality (NF)” value in data set [3] (compounds causing lethality, 20 μM, treatment from stage 31, Nieuwkoop & Faber stage) was 41 NF. The activity at 1 µM in data set [4] (setting [9]) was 50 to 85%; in data set [4] (setting [10]), 59%; in data set [5] (setting [11]) it was 85 to 115%; in data set [5] (setting [12]), 110%.
